From ChEMBL document CHEMBL1201862, “PubChem BioAssay data set” (2004)
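Interpolation was linear, between the two tested concentrations surrounding the appropriate level; five concentrations were tested over 48 hours in 96-well plates. GI50 = concentration required for 50% inhibition of growth.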 Calls of active or inactive are those of the source. No stated cut-off is given here; in the data, active = GI50 up to about 1.1 µM and inactive = higher.

What was measured:
Experiment in all cases: NCI tumour cell line growth inhibition, 48 h
[1] = tested on: SK-MEL-28
[2] = tested on: HCT-116
[3] = tested on: SF-295
[4] = tested on: SNB-75
[5] = tested on: SF-268
[6] = tested on: M19-MEL
[7] = tested on: RXF 631
[8] = tested on: EKVX
[9] = tested on: RXF 393
[10] = tested on: KM-20L2
[11] = tested on: NCI-H522
[12] = tested on: UACC-62
[13] = tested on: SNB-19
[14] = tested on: DMS-273
[15] = tested on: OVCAR-8
[16] = tested on: SR
[17] = tested on: NCI-H460
[18] = tested on: OVCAR-3
[19] = tested on: ACHN
[20] = tested on: COLO 205
[21] = tested on: XF498
[22] = tested on: NCI-H226
[23] = tested on: MOLT-4
[24] = tested on: TK-10
[25] = tested on: HOP-18
[26] = tested on: A549
[27] = tested on: UACC-257
[28] = tested on: DMS-114
[29] = tested on: M14
[30] = tested on: K562
[31] = tested on: HCC 2998
[32] = tested on: SK-MEL-2
[33] = tested on: HL-60
[34] = tested on: HOP-62
[35] = tested on: U-251
[36] = tested on: KM12
[37] = tested on: SW-620
[38] = tested on: HT-29
[39] = tested on: NCI-H23
[40] = tested on: DLD-1
[41] = tested on: HOP-92
[42] = tested on: SK-MEL-5
[43] = tested on: CCRF-CEM
[44] = tested on: 786-0
[45] = tested on: SF-539
[46] = tested on: RPMI-8226
[47] = tested on: LXFL 529
[48] = tested on: OVCAR-4
[49] = tested on: HCT-15
[50] = tested on: CAKI-1
[51] = tested on: SN12C
[52] = tested on: UO-31
[53] = tested on: Malme-3M
[54] = tested on: SNB-78
[55] = tested on: MCF7
[56] = tested on: Hs-578T
[57] = tested on: MDA-N
[58] = tested on: BT-549
[59] = tested on: OVCAR-5
[60] = tested on: LOX IMVI
[61] = tested on: IGROV-1
[62] = tested on: T47D
[63] = tested on: MDA-MB-231
[64] = tested on: MDA-MB-435
[65] = tested on: SK-OV-3
[66] = tested on: PC-3
[67] = tested on: NCI/ADR-RES
[68] = tested on: A498
[69] = tested on: DU-145

CC(=O)NC(CCCCNC(=O)NCCCl)C(=O)NCc1ccccc1 (stereo unspecified)
GI50 [1]: > 100 µM (inactive)
GI50 [2]: > 100 µM (inactive)
GI50 [3]: > 100 µM (inactive)
GI50 [4]: > 100 µM (inactive)
GI50 [5]: > 100 µM (inactive)
GI50 [6]: > 100 µM (inactive)
GI50 [7]: > 100 µM (inactive)
GI50 [8]: > 100 µM (inactive)
GI50 [9]: > 100 µM (inactive)
GI50 [10]: > 100 µM (inactive)
GI50 [11]: > 100 µM (inactive)
GI50 [12]: > 100 µM (inactive)
GI50 [13]: > 100 µM (inactive)
GI50 [14]: > 100 µM (inactive)
GI50 [15]: > 100 µM (inactive)
GI50 [16]: > 100 µM (inactive)
GI50 [17]: > 100 µM (inactive)
GI50 [18]: > 100 µM (inactive)
GI50 [19]: > 100 µM (inactive)
GI50 [20]: > 100 µM (inactive)
GI50 [21]: > 100 µM (inactive)
GI50 [22]: > 100 µM (inactive)
GI50 [23]: > 100 µM (inactive)
GI50 [24]: > 100 µM (inactive)
GI50 [25]: > 100 µM (inactive)
GI50 [26]: > 100 µM (inactive)
GI50 [27]: > 100 µM (inactive)
GI50 [28]: > 100 µM (inactive)
GI50 [29]: > 100 µM (inactive)
GI50 [30]: > 100 µM (inactive)
GI50 [31]: > 100 µM (inactive)
GI50 [32]: > 100 µM (inactive)
GI50 [33]: > 100 µM (inactive)
GI50 [34]: > 100 µM (inactive)
GI50 [35]: > 100 µM (inactive)
GI50 [36]: > 100 µM (inactive)
GI50 [37]: > 100 µM (inactive)
GI50 [38]: > 100 µM (inactive)
GI50 [39]: > 100 µM (inactive)
GI50 [40]: > 100 µM (inactive)
GI50 [41]: > 100 µM (inactive)
GI50 [42]: > 100 µM (inactive)
GI50 [43]: > 100 µM (inactive)
GI50 [44]: > 100 µM (inactive)
GI50 [45]: > 100 µM (inactive)
GI50 [46]: > 100 µM (inactive)
GI50 [47]: > 100 µM (inactive)
GI50 [48]: > 100 µM (inactive)
GI50 [49]: > 100 µM
GI50 [50]: > 100 µM (inactive)
GI50 [51]: > 100 µM (inactive)
GI50 [52]: > 100 µM (inactive)
GI50 [53]: > 100 µM (inactive)

CCN(CC)CCn1ccc(=O)c2cc3c(=O)ccn(CCN(CC)CC)c3c(C)c21
GI50 [1]: 19.9 µM (inactive)
GI50 [2]: 1.82 µM (inactive)
GI50 [54]: 11.4 µM (inactive)
GI50 [3]: 4.47 µM (inactive)
GI50 [55]: 20.8 µM (inactive)
GI50 [4]: 9.91 µM (inactive)
GI50 [5]: 4.07 µM (inactive)
GI50 [6]: 12.6 µM (inactive)
GI50 [7]: 5.74 µM (inactive)
GI50 [8]: 5.77 µM (inactive)
GI50 [56]: 4.03 µM (inactive)
GI50 [9]: 4.56 µM (inactive)
GI50 [57]: 5.57 µM (inactive)
GI50 [58]: 14.5 µM (inactive)
GI50 [10]: 3.61 µM (inactive)
GI50 [11]: 6.37 µM (inactive)
GI50 [12]: 15.4 µM (inactive)
GI50 [13]: 5.15 µM (inactive)
GI50 [14]: 3.58 µM (inactive)
GI50 [15]: 2.87 µM (inactive)
GI50 [16]: 1.26 µM (inactive)
GI50 [17]: 1.31 µM (inactive)
GI50 [18]: 8.55 µM (inactive)
GI50 [19]: 4.02 µM (inactive)
GI50 [20]: 3.87 µM (inactive)
GI50 [59]: 14.1 µM (inactive)
GI50 [21]: 8.95 µM (inactive)
GI50 [22]: 10.9 µM (inactive)
GI50 [23]: 0.525 µM (active)
GI50 [24]: 7.43 µM (inactive)
GI50 [60]: 2.84 µM (inactive)
GI50 [61]: 7.28 µM (inactive)
GI50 [25]: 6.82 µM (inactive)
GI50 [26]: 4.27 µM (inactive)
GI50 [62]: 25.1 µM (inactive)
GI50 [27]: 16.7 µM (inactive)
GI50 [28]: 13.8 µM (inactive)
GI50 [29]: 9.38 µM (inactive)
GI50 [63]: 5.27 µM (inactive)
GI50 [30]: 2.77 µM (inactive)
GI50 [64]: 4.65 µM (inactive)
GI50 [31]: 1.44 µM (inactive)
GI50 [32]: 11.6 µM (inactive)
GI50 [33]: 1.42 µM (inactive)
GI50 [65]: 4.13 µM (inactive)
GI50 [34]: 7.38 µM (inactive)
GI50 [66]: 4.79 µM (inactive)
GI50 [35]: 5.89 µM (inactive)
GI50 [36]: 0.993 µM (active)
GI50 [37]: 1.53 µM (inactive)
GI50 [38]: 2.81 µM (inactive)
GI50 [39]: 6.75 µM (inactive)
GI50 [40]: 1.65 µM (inactive)
GI50 [41]: 7.69 µM (inactive)
GI50 [67]: 1.41 µM (inactive)
GI50 [42]: 15.7 µM (inactive)
GI50 [43]: 1.77 µM (inactive)
GI50 [44]: 1.92 µM (inactive)
GI50 [45]: 11.2 µM (inactive)
GI50 [46]: 2.1 µM (inactive)
GI50 [47]: 4.41 µM (inactive)
GI50 [48]: 2.02 µM (inactive)
GI50 [49]: 3.38 µM
GI50 [68]: 15.5 µM (inactive)
GI50 [50]: 7.4 µM (inactive)
GI50 [51]: 5.65 µM (inactive)
GI50 [52]: 5.07 µM (inactive)
GI50 [53]: 15 µM (inactive)
GI50 [69]: 5.19 µM (inactive)

Cn1c(=O)nc2n(-c3ccc(F)c(F)c3)c3ccccc3nc-2c1=O
GI50 [2]: 13.2 µM (inactive)
GI50 [54]: 19.3 µM (inactive)
GI50 [3]: 14.3 µM (inactive)
GI50 [4]: 23.3 µM (inactive)
GI50 [5]: 18.5 µM (inactive)
GI50 [6]: 1.76 µM (inactive)
GI50 [7]: 16.4 µM (inactive)
GI50 [8]: 4.82 µM (inactive)
GI50 [9]: 28.2 µM (inactive)
GI50 [10]: 4.86 µM (inactive)
GI50 [11]: 10.4 µM (inactive)
GI50 [12]: 2.4 µM (inactive)
GI50 [13]: 15.7 µM (inactive)
GI50 [14]: 12.1 µM (inactive)
GI50 [15]: 13.2 µM (inactive)
GI50 [17]: 7.11 µM (inactive)
GI50 [18]: 3.13 µM (inactive)
GI50 [19]: 8.79 µM (inactive)
GI50 [20]: 4.08 µM (inactive)
GI50 [59]: 22.3 µM (inactive)
GI50 [21]: 21.7 µM (inactive)
GI50 [22]: 30.3 µM (inactive)
GI50 [24]: 32.3 µM (inactive)
GI50 [61]: 15.2 µM (inactive)
GI50 [25]: 27.5 µM (inactive)
GI50 [26]: 15.9 µM (inactive)
GI50 [27]: 6.68 µM (inactive)
GI50 [28]: 4.33 µM (inactive)
GI50 [29]: 13.8 µM (inactive)
GI50 [30]: 15.5 µM (inactive)
GI50 [31]: 4.89 µM (inactive)
GI50 [32]: 17 µM (inactive)
GI50 [33]: 10.6 µM (inactive)
GI50 [65]: > 100 µM (inactive)
GI50 [34]: 44.2 µM (inactive)
GI50 [35]: 14.7 µM (inactive)
GI50 [36]: 20.8 µM (inactive)
GI50 [37]: 7.85 µM (inactive)
GI50 [38]: 4.03 µM (inactive)
GI50 [39]: 10.8 µM (inactive)
GI50 [40]: 16 µM (inactive)
GI50 [42]: 8.18 µM (inactive)
GI50 [43]: 14.8 µM (inactive)
GI50 [44]: 32.7 µM (inactive)
GI50 [45]: 27.1 µM (inactive)
GI50 [46]: 16.8 µM (inactive)
GI50 [47]: 21.3 µM (inactive)
GI50 [48]: 8.83 µM (inactive)
GI50 [49]: 7.33 µM
GI50 [68]: 42.9 µM (inactive)
GI50 [50]: 38.4 µM (inactive)
GI50 [51]: 17.6 µM (inactive)
GI50 [52]: 37.9 µM (inactive)
GI50 [53]: 11.3 µM (inactive)
